Paper PMC3025356, “Mechanism of the Ca^2+-Dependent Interaction between S100A4 and Tail Fragments of Nonmuscle Myosin Heavy Chain IIA” (Journal of Molecular Biology, 2011)

Columns and labels:
S100A4 [1] = target: T1, S100A4 (Homo sapiens, UniProt P26447); details: peptide residues 1908–1923; cited from earlier work
T1 construct: We used full-length S100A4 for this analysis; made in house; host or cells: Escherichia coli BL21(DE3)
Description: Our kinetic studies are also used to redefine the minimal binding fragment of the NM-MHC IIA tail (Fig. 1). Using a series of overlapping fragments and a blot overlay assay, Kriajevska et al. previously mapped the S100A4 binding site of nonmuscle myosin IIA to a 29-amino-acid region near the C-terminus (residues 1908–1936 in the current numbering system).[9]

S100A4 [2] = target: T1, S100A4; assay: Competition with F-M16^N binding to S100A4 (fluorescence anisotropy); details: read-out: Kd (K2) by competition
Experimental: Titration (circles) was carried out in 20 mM NaCl, 10 mM Hepes, 1 mM Mg^2+, and 100 μM Ca^2+ at pH 7.5 and 20 °C. […] (squares).
Fluorescence spectra and anisotropy measurements were recorded using an SLM 8000 spectrofluorimeter (SLM, Urbana, IL). Fluorescein anisotropy measurements were carried out in L-format using a 515-nm emission filter. The four combinations of vertical and horizontal polarisers (vv, vh, hh, and hv) were each recorded for 30 s, and then the initial setting (vv) was re-read to check for signal stability. Calculations of the total fluorescence (Ivv + 2Ivh) and anisotropy (Ivv − Ivh/(Ivv + 2Ivh)), corrected for the g factor (hh/hv), were performed using an Excel spreadsheet. […] Note that the small correction for the emission intensity weighting to the observed anisotropy was not applied to these competitive titrations as the error will tend to cancel.

S100A4 [3] = target: T1, S100A4; assay: Quin-2 fluorescence, Ca^2+ dissociation from S100A4 in the presence of target peptides; assay type: binding; details: 50 μM peptide premixed with 10 μM S100A4; 100 mM NaCl, 10 mM Hepes, 100 μM Ca^2+, pH 7.5, 20 °C
Experimental: Ca^2+ dissociation measurements for wild-type S100A4, using Quin-2 as described above, were repeated as a control for the effect of target peptides on this process. On mixing 10 μM S100A4 in the presence of Ca^2+ with 100 μM Quin-2, the observed profile was fitted to a single exponential with kobs = 17 s^− 1 (Fig. 5a; cf. k− 1 in Scheme 1).
Fig. 5 Dissociation of Ca^2+ from S100A4 in the absence and in the presence of target peptides monitored using Quin-2 fluorescence. (a) Mixed with 100 μM Quin-2 was 10 μM S100A4 + 50 μM Ca^2+ (stopped-flow reaction chamber concentrations). A superposed fit to a single exponential yields kobs = 17 s^− 1. […] (d) As in (a), but with 2.5 μM M200 premixed with 5 μM S100A4. A biphasic exponential fit yielded rate constants of 13 s^− 1 (A = 26%) and 0.30 s^− 1 (A = 74%). […] Experiments were carried out in either 20 mM NaCl, 20 mM Tris, 1 mM DTT, and 100 μM Ca^2+ at pH 7.5 and 20 °C (a and b; cf. Malashkevich et al.[17]), or 100 mM NaCl, 10 mM Hepes, and 100 μM Ca^2+ at pH 7.5 and 20 °C (c and d). […] Rate constants were unaffected by the inclusion of 1 mM Mg^2+.
Stopped-flow measurements were carried out using an SX18-MV apparatus (Applied Photophysics Ltd., Leatherhead, UK) with a dead time of 1.5 ms.[40] Records were generally captured on a logarithmic time base. Absorption (turbidity) measurements were usually recorded using a 10-mm pathlength, while fluorescence was recorded with a 2-mm pathlength for excitation and emission. The stated concentrations of components refer to the reaction chamber after mixing, unless otherwise indicated. Tyrosine fluorescence was excited at 280 nm, and the emission was collected through a UG11 bandpass filter plus a 305-nm longpass filter.[18] Fluorescein fluorescence was excited at 480 nm, and the emission was detected through a 515-nm longpass filter. Quin-2 fluorescence was measured by excitation at 336 nm, and emission was collected with a 455-nm longpass filter. For simultaneous recording of light scatter, a second channel was monitored through a UG11 filter. […]

S100A4 [4] = target: T1, S100A4; assay: Competition of M32/M16^N with M200 for S100A4 (turbidity); assay type: biochemical; details: 250 μM peptide, 5 μM M200, 10 μM S100A4, Ca^2+
Experimental: Fig. 9 Dissociation of M200 filaments by S100A4. (a) Initially, M200 was added (i) from a concentrated stock in 0.5 M NaCl to give a final concentration of 5 μM M200 (with respect to the polypeptide chain) in 100 mM NaCl, 10 mM Hepes, and 0.1 mM Ca^2+ at pH 7.5 and 20 °C. A biphasic rise in turbidity was recorded for 200 s (continuous line). Then 10 μM S100A4 (with respect to monomer concentration) was added (ii), followed by 0.2 mM EGTA (iii) and 1 mM Ca^2+ (iv). […] (b) M200 was diluted (i) into 100 mM NaCl to form filaments as in (a), then 5 μM S100A4 was added (ii), causing a 54% drop in turbidity. A further 5 μM S100A4 (iii) caused turbidity to fall to almost zero. (c) Stopped-flow records monitoring the dissociation of 5 μM M200 filaments on jumping [NaCl] from 100 mM to 120 mM NaCl. Other components of the buffer were 20 mM Hepes, 1 mM Mg^2+, and 100 μM Ca^2+ at pH 7.5 and 20 °C. […] In the presence of 20 μM S100A4 (lower trace), the turbidity decreased by 87% with a rate constant of 0.2 s^− 1.
Further information on Scheme 2 was obtained from competition assays. […] An independent estimate of K5 based on the Ca^2+ dependence of the turbidity assay yielded a value of 0.003 μM (see Supplementary Data).
The decrease in fluorescence, […]
that F-M16N binding was slightly faster. […]
A second estimate was calculated from the apparent Ca2+ binding constant observed in the turbidity assay […]

T1 sequence (P26447 whole entry, the tested form may be a part): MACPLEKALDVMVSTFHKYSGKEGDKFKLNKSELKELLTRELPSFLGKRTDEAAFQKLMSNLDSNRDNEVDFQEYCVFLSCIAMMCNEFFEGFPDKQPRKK

For `CSCC[C@H](NC(=O)[C@H](C)NC(=O)[C@H](CC(=O)O)NC(C)=O)C(=O)N[C@@H](CC(N)=O)C(=O)N[C@@H](CCCNC(=N)N)C(=O)N[C@@H](CCC(=O)O)C(=O)N[C@H](C(=O)N[C@@H](CO)C(=O)N[C@@H](CO)C(=O)N[C@@H](CC(C)C)C(=O)N[C@@H](CCCCN)C(=O)N[C@@H](CC(N)=O)C(=O)N[C@@H](CCCCN)C(=O)N[C@@H](CC(C)C)C(=O)N[C@@H](CCCNC(=N)N)C(=O)N[C@@H](CCCNC(=N)N)C(N)=O)C(C)C` [M16^N], the “difference in binding constant vs longer fragments (1851–1960, 1893–1923)” value (S100A4 [1]) is listed as ~2 -fold, the Kd (S100A4 [2]) is listed as no less than 100 µM and the “kobs, Ca^2+ dissociation with peptide” value (S100A4 [3]) is listed as 16 s^− 1. For the same compound, the “inhibition of turbidity change amplitude” value (S100A4 [4]) was “no effect”.
